According to patent US11591288B2, “Compositions and methods for treating atherosclerotic cardiovascular disease” (GAVISH-GALILEE BIO APPLICATIONS LTD., priority 2017, dated 2023):

What was measured:
[1] = system: J774A.1 macrophages; test: HDL-mediated cholesterol efflux from macrophage cells; assay type: cell-based, murine; settings: 16.5% without lyso-DGTS
Protocol: Cholesterol efflux Fluorometric Assay Kit (Cell-Based), Biovision was used to measure the effect of lyso-DGTS on HDL-cholesterol efflux.
J774.1 macrophage cells were grown in RPMI 1640 media containing 10% FBS in cell culture flask till ˜90% confluence (37° C. incubator containing 5% CO2). The cells were splitted under sterile conditions using basic cell culture techniques and plate to approximately 1×10^5 cells/well in a 96-well plate (white plate with clear bottom) using 100 μl media/well. After 2 h, the cells attached to the plates, washed with RPMI 1640 media (no serum added) and labeled with 50 μl labeling reagent and 50 μl equilibration buffer, supplied by the kit, for 16 h. 100 μl equilibration buffer alone were added to the background control for measuring background fluorescence. The cells were washed with media and treated for another 4-6 h with 100 μl of RPMI 1640 media containing HDL (25 μg protein) preincubated with lyso-DGTS at various concentrations (0, 10, 20, 50, and 100 μg/ml) for 4 h. To the negative control was added RPMI 1640 media alone.
The fluorescence of the supernatant was measured (excitation/emission=482/515 nm). The cells were solubilized adding 100 μl of Cell Lysis Buffer and shaking on a plate shaker for 30 min at room temperature, and its fluorescence was also measured.
Cholesterol efflux of the treatments was calculated by dividing the fluorescence intensity of the media by total fluorescence intensity of the cell lysate of the same treatment and media.
HDL removes cholesterol from cells, including macrophages. HDL particles were incubated with lyso-DGTS at different concentrations. The HDL ability to efflux cholesterol from J774A.1 macrophages was measured using flouromtric assay (cell-based cholesterol efflux flouromtric assay kit, supplied by Biovision) and expressed as % of cholesterol efflux. […] The cholesterol removal enhanced from 16.5% (without lyso-DGTS) to 22.5%, 31.5%, 36.5%, and 46.5% after incubation with lyso-DGTS at 10, 20, 50, and 100 μg/ml, respectively (FIG. 8).

[2] = system: HDL isolated from Balb/c mice; test: Pro-/anti-inflammatory properties of HDL isolated from HFD fed Balb/c mice, cell free assay; assay type: in vivo; settings: HDL from HFD mice given lyso-DGTS 1.43 mg/ml, 3.5 μl a day, 28 days; fluorescence without HDL = 1.0; p<0.05
Protocol: Balb/c mice fed with normal rodent diet (the “non” group; n=11) or HFD received treatment administered via subcutaneously implanted osmotic mini-pumps: 1) vehicle group injected with DDW+2% Tween 80 (n=9); 2) lyso-DGTS group injected with lyso-DGTS (1.43 mg/ml in DDW+2% Tween 80; n=1). At the end of the protocol, serum was obtained, HDL was isolated, and its pro-inflammatory/anti-inflammatory properties were determined using cell free assay (CFA). Fluorescence in the absence of HDL was normalized to 1.0. Values>1.0, after addition of the tested HDL, indicated pro-inflammatory activity; and values<1.0 indicated anti-inflammatory activity. (*p<0.05).
In order to examine the effect of lyso-DGTS on HDL-anti-inflammatory effects in-vivo, 3.5 μl lyso-DGTS a day were administered for 28 days, via a subcutaneously implanted osmotic mini-pump, to HFD fed mice. As described in Example 12, the mice were divided into three groups: 1) mice fed with regular diet for 12 weeks (the “non” group; […]); 2) mice fed with HFD for 12 weeks and injected with lyso-DGTS (1.43 mg/ml in DDW+2% Tween) from week 9 (the lyso-DGTS group; n=1); and 3) mice fed with HFD for 12 weeks and injected with DDW+2% Tween (the vehicle group; n=9).

[3] = system: rePON1; test: rePON1 arylesterase activity (phenyl acetate assay) after incubation with lyso-DGTS; assay type: biochemical; settings: 0-100 μg/ml lyso-DGTS, 2 or 4 h, 37° C.
Protocol: To 200 μl of rePON1 solution (5 μg/ml) in Tris-HCl buffer pH=8.4 was added 1 μl of lyso-DGTS dissolved in dimethyl sulfoxide (DMSO) to a final concentration of 1, 5, 10, 50, and 100 μg/ml. 1 μl DMSO was added to the control rePON1 solution. The mixtures were incubated at 37° C. for 2, 4, 24 or 48 h.
10 μl from each solution were taken to a UV 96-well microplate wells containing 90 μl Tris-HCL buffer pH=8.4 with 1 mM CaCl2 (activity buffer). Then 100 μl phenyl acetate, 2 mM in the activity buffer was added (prepared from a stock of 100 mM phenyl acetate in DMSO). Phenyl acetate hydrolysis rate was measured at 270 nm, once in 25 seconds, for 15 minutes using SpectraMax M2 Reader. One unit of esterase activity was equal to the hydrolysis of 1 μmol of phenyl acetate/min. Lactonase and esterase unit activity were calculated by the following equation: Unit=slope (mOD/min)×5(per ml)×666.7(dilution)/700. Human Serum PON1 Lactonase Activity
The effect of lyso-DGTS on lactonase and arylesterase activities of rePON1 was examined. rePON1 (5 μg/ml in Tris buffer pH=8.4) was incubated with different concentrations of lyso-DGTS for 2, 4, 24, and 48 h at 37° C., and its lactonase and aryesterase activities were measured using dihydrocoumarin and phenyl acetate assays, respectively.

[4] = system: rePON1; test: rePON1-lyso-DGTS interaction, Trp fluorescence quenching; assay type: binding
Protocol: To 200 μl rePON1 (50 μg/ml=1.16 μM) solution in black 96-well plate wells was added lyso-DGTS at various concentration (0, 1, 5, 10, 25, 50, 75, and 100 μg/ml). The solutions were incubated for 2 h at 25° C. or 37° C. Fluorescence measurements were performed with an Infinite M200 PRO fluorescence spectrophotometer (Tecan) with emission spectra recorded from 320 to 450 nm at an excitation wavelength of 290 nm.
The effect of lyso-DGTS on rePON1 can result from a specific interaction between the lipid and the enzyme which was studied using Trp fluorescence quenching method. […] (FIG. 3A) and 37° C. (FIG. 3B) in the 300-450 nm range with an excitation wavelength of 290 nm. Lyso-DGTS quenched the fluorescence of rePON1 in a dose dependent manner at both temperatures.
Quenching pathways can be described by the Stern-Volmer equation (eq. 1):
[formula] where F0 and F are the fluorescence intensities in the absence and presence of quencher (lyso-DGTS), respectively, Ksv is the Stern-Volmer quenching constant, and [Q] is the quencher concentration (M).
The binding constant and binding sites were calculated using (eq. 2):
[formula] where Ka is the binding constant, reflecting the degree of interaction between rePON1 and lyso-DGTS, and n is the number of binding sites specifying the number of lyso-DGTS molecules bound to a rePON1. […] (2.377×10^3 M^−1; FIG. 4C). The values obtained for n were not affected by the temperature and were equal to ˜1 (Table 4). The thermodynamic parameters: enthalpy (ΔH), entropy (ΔS), and free energy (ΔG) were calculated to characterize the type of rePON1-lyso-DGTS interaction.

Q: `CC/C=C\C/C=C\C/C=C\C/C=C\C/C=C\CCCC(=O)OCC(O)COCCC(C(=O)[O-])[N+](C)(C)C` (stereo not shown) [lyso-DGTS, lyso-diacylglyceryltrimethylhornmoserine] was tested. Which HDL-mediated cholesterol efflux ([1]; HDL incubated with 10 μg/ml lyso-DGTS) did it give?
A: 22.5%

Q: And the HDL-mediated cholesterol efflux ([1]; HDL incubated with 20 μg/ml lyso-DGTS)?
A: 31.5%

Q: And the HDL-mediated cholesterol efflux ([1]; HDL incubated with 50 μg/ml lyso-DGTS)?
A: 36.5%

Q: What about the HDL-mediated cholesterol efflux ([1]; HDL incubated with 100 μg/ml lyso-DGTS) of the same molecule?
A: 46.5%

Q: What about the HDL inflammatory value [2] of the same molecule?
A: < 1

Q: What about the “effect on rePON1 arylesterase activity” value [3] of the same molecule?
A: increases rePON1 lactonase and arylesterase activities in a dose and time dependent manner

Q: And the “Stern-Volmer quenching constant Ksv, rePON1” value ([4]; 25° C.)?
A: (1.18±0.13)×10^+4 M^−1

Q: What about the “Stern-Volmer quenching constant Ksv, rePON1” value ([4]; 37° C.) of the same molecule?
A: (0.93±0.03)×10^+4 M^−1

Q: And the “Binding constant Ka, lyso-DGTS-rePON1” value ([4]; 298 K (25° C.))?
A: 10520 M⁻¹

Q: What about the “Binding constant Ka, lyso-DGTS-rePON1” value ([4]; 310 K (37° C.)) of the same molecule?
A: 2377 M⁻¹
